Data published in BindingDB's records for PubMed 35261239 (Bristol-Myers Squibb Company, 2022).

Molecular target: TGF-beta-activated kinase 1 (MAP3K7)
Assay: Inhibition of TAK (unknown origin)

Row | SMILES | IC50 [nM]
1 | COC(=O)Nc1cc(-c2cnc(OC[C@@](C)(N)CC(C)C)c(C#N)c2)ccn1 | 260
2 | COC(=O)Nc1cc(-c2cnc(OC[C@@](C)(N)CC(C)C)c(Cl)c2)ccn1 | 120
